Legend:
Format in all cases: physicochemical
[1] = Particle Size Distribution (PSD) by laser diffraction, Malvern Mastersizer 3000; settings: dispersed in ethyl acetate
Procedure: Particle Size Distribution (PSD) by Laser Diffraction
Particle size analyses were conducted on a Malvern Mastersizer™ 3000 using the Hydro MV dispersion unit. A non-validated general PSD method/dispersant method was used to analyze the cisplatin samples. The sample preparation procedure performed was as follows:
Weigh 10 to 20 mg of cisplatin into a 30-mL vial, add 20 mL of ethyl acetate. Disperse the sample by vortexing then sonicating the suspension in an ultrasonic bath for 1 minute. Then transfer the sample suspension to the Malvem Hydro MV dispersion unit to obtain obscuration between 5 and 15%.

[2] = Specific Surface Area (SSA) by BET sorptometry
Procedure: As used herein, the “specific surface area” is the total surface area of the cisplatin particle per unit of cisplatin mass as measured by the Brunauer—Emmett—Teller (“BET”) isotherm (i.e.: the BET SSA). As will be understood by those of skill in the art, the SSA is determined on a per gram basis and takes into account both agglomerated and non-agglomerated cisplatin particles in the composition. The BET specific surface area test procedure is a compendial method included in both the United States Pharmaceopeia and the European Pharmaceopeia. The cisplatin particles have a specific surface area (SSA) of at least 3.5 m^2/g. In various further embodiments, the cisplatin particles have a SSA of at least 4 m^2/g, 5 m^2/g, 6 m^2/g, 7 m^2/g, 8 m^2/g, 9 m^2/g, 10 m^2/g, 11 m^2/g, 12 m^2/g, 13 m^2/g, 14 m^2/g, […] m^2/g, 17 m^2/g, 18 m^2/g, 19 m^2/g 20 m^2/g 21 m^2/g, 22 m^2/g, 23 m^2/g, or 24 m^2/g.
Specific Surface Area (SSA) determination by BET Sorptometry
Surface area analyses were conducted on a Quantachrome NOVAtouch™ LX2 BET Sorptometer. […] Surface area results can be found in Table 1.

[3] = Bulk density analysis (modified USP <616> Method I, 10 mL graduated cylinder); settings: not tapped
Procedure: As used herein, the bulk density of the cisplatin particles is the mass of the totality of particles in the composition divided by the total volume they occupy when poured into a graduated cylinder and not tapped. The total volume includes particle volume, inter-particle void volume, and internal pore volume.
Bulk density analysis by modified USP <616>Bulk Density of Powders Method I
Bulk density analyses were conducted using a 10 mL graduated cylinder due to low sample volume. SC1 was the only precipitate measured due to insufficient materials available for analysis from SC2 and SC3. […] Bulk density results can be seen in Table 1.

SMILES: N.N.[Cl][Pt][Cl] [Raw, Cisplatin]
- PSD - Mastersizer Dv10 [1]: 1.72 μm
- PSD - Mastersizer Dv50 [1]: 10.9 μm
- PSD - Mastersizer Dv90 [1]: 25.9 μm
- Surface Area [2]: 2.44 m^2/g
- Bulk Density [3]: 1.01 g/mL

From US20240156861A1, “Cisplatin particles and uses thereof” (CRITITECH, INC., priority 2022, published 2024)
